According to PubChem BioAssay (NCI):
Where “and” joins values, the source holds several entries; their conditions need not be identical. Equal entries are not always repeated.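 Each compound was tested at five concentrations against cells in 96-well plates for 48 hours. GI50 = concentration required for 50% inhibition of growth. TGI: concentration producing complete growth inhibition.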

Legend:
Test in all cases: DTP human tumour cell line panel, 48 h
[1] = test system: CAKI-1 renal
[2] = test system: ACHN renal
[3] = test system: HL-60(TB) leukemia
[4] = test system: OVCAR-3 ovarian
[5] = test system: SK-MEL-5 melanoma
[6] = test system: SF-539 CNS
[7] = test system: IGROV1 ovarian
[8] = test system: MDA-MB-435
[9] = test system: UO-31 renal
[10] = test system: NCI/ADR-RES ovarian

SMILES	TGI [1] [µM]	TGI [2] [µM]	TGI [3] [µM]	TGI [4]	TGI [5] [µM]	TGI [6] [µM]	TGI [7] [µM]	GI50 [1] [µM]	GI50 [2] [µM]	GI50 [3] [µM]	GI50 [8] [µM]	TGI [8] [µM]	GI50 [9] [µM]	TGI [9] [µM]	GI50 [4] [µM]	GI50 [5] [µM]	GI50 [6] [µM]	TGI [10] [µM]	GI50 [10] [µM]	GI50 [7] [µM]
CCOC(=O)C1(C(=O)OCC)CC=C(C)CC12C(=O)Nc1ccccc12 (stereo unspecified)	> 100	> 100	> 100	> 100 µM	> 100	> 100	> 100	–	–	–	–	–	–	–	–	–	–	–	–	–
COc1cc(/C=C/C(=O)c2cc(OC)c(OC)c(OC)c2)cc(OC)c1OC	3.87	46.8	11.2	4.21 µM	21.1	12.9	–	1.23	4.73	1.21	2.28	8.11	2.05	12.1	1.91	8.33	3.21	–	–	–
Cn1cnc([N+](=O)[O-])c1Sc1nnc(C(F)(F)F)n1C	> 100	57.4	–	55.6 µM	> 100	65.7	> 100	–	–	–	–	–	–	> 100	–	–	–	–	–	–
CC(C)CC(=O)CC(O)C(Cl)(Cl)Cl (stereo unspecified)	> 100	> 100	–	> 100 µM	> 100	–	> 100	–	–	–	–	> 100	–	> 100	–	–	–	> 100	–	–
COC(=O)C(=O)C(C#N)c1ccc(Cl)c(Cl)c1 (stereo unspecified)	> 100	> 100	> 100	> 100 µM	> 100	> 100	> 100	–	–	–	–	–	–	> 100	–	–	–	–	–	–
O=C1CCC2CCOc3ccc(O)c1c32 (stereo unspecified)	–	> 100	> 100	> 100 µM	> 100	> 100	> 100	–	–	–	–	–	–	> 100	–	–	–	–	–	–
CC(C)(C)C(=O)OCC(COC(=O)C(C)(C)C)[N+](=O)[O-]	> 100	> 100	79.8	> 100 µM	–	> 100	> 100	–	–	–	–	–	–	> 100	–	–	–	–	–	–
O=C1c2ccccc2C2(O)Oc3cccc(O)c3C12O (stereo unspecified)	> 100	> 100	> 100	> 100 µM	> 100	> 100	> 100	–	–	–	–	–	–	> 100	–	–	–	–	–	–
CCCCCCCCCC(=O)N[C@H]1CCc2cc(OC)c(OC)c(OC)c2-c2ccc(SC)c(=O)cc21	> 100	> 100	0.223	0.0477 µM and 0.03 µM	0.0826	0.0491	–	5.27	–	–	–	–	0.0168	44.2	–	–	–	–	–	–
COc1ccc(-c2c(C#N)c(N)nc3c2CCCc2ccc(F)cc2-3)cc1OC	35.1	19.4	> 100	–	0.483	0.0213	> 100	0.0241	–	< 0.01	–	–	0.148	> 100	< 0.01	–	< 0.01	> 100	0.48	0.131
COc1cc2c3c(n(C)c(=O)c2cc1OC)-c1cc2c(cc1/C3=C\[C@@H](N)CCCCN)OCO2	> 75.1	> 41.4	8.73	58.9 µM	–	12.5	> 100	4.26	2.46	2.15	2.81	> 100	8	> 100	3.83	–	0.335	> 100	29.7	2.24
O=C1CC(c2c[nH]c3ccccc23)C(=O)N1c1ccccc1 (stereo unspecified)	> 100	> 100	> 100	> 100 µM	> 100	> 100	> 100	–	–	–	–	–	–	> 100	–	–	–	–	–	–
C=CCNc1cccc2c1C(=O)c1ccccc1C2(O)CC=C (stereo unspecified)	–	65.3	> 100	–	30.2	38.4	> 100	–	28.5	47.2	24.6	59	27.7	> 100	–	16	19.5	58.4	22.4	33.3
COc1ccc(CCC2NCCc3cc(OC)c(OC)cc32)cc1 (stereo unspecified)	> 100	> 100	–	> 100 µM	> 100	> 100	–	–	–	–	–	–	–	> 100	–	–	–	–	–	–
CCc1cccc(C(C)CC)c1NC(=O)CC1C(=O)Nc2ccccc2S1=O (stereo unspecified)	> 100	> 100	> 100	> 100 µM	> 100	46.2	78.6	–	–	–	–	–	–	> 100	–	–	–	–	–	–
COc1ccc(-c2[nH]ncc2-c2cc(OC)c(OC)c(OC)c2)cc1	25	> 42.9	–	–	0.0551	< 0.0128	7.73	< 0.01	< 0.01	–	< 0.01	< 0.01	< 0.01	11.2	< 0.01	< 0.01	< 0.01	1.93	< 0.01	< 0.01
CCCCC#Cc1cccc(=O)o1	> 100	–	> 100	> 100 µM	26.6	> 100	> 100	> 100	–	1.86	15	> 100	20.8	> 100	5.23	3.71	> 100	> 100	9.46	79.5
Cc1ccc(N(C(=O)CC(=O)N2N=C(c3ccccc3)C(N=Nc3ccc([N+](=O)[O-])cc3)C2=O)C(=O)c2ccc(Cl)cc2)cc1 (stereo unspecified)	> 76.8	> 100	> 56.5	> 91.6 µM	84.8	35.6	45.9	–	–	–	–	–	–	> 100	–	–	–	–	–	–
Nc1nc(Nc2ccc3c(c2)CCC(N2CCCC2)CC3)nn1-c1cc2c(nn1)-c1ccccc1CCC2 (stereo unspecified)	2.05	1.59	2.75	2.93 µM	2.78	2.1	1.81	0.531	0.346	1.01	1.32	2.74	0.668	2.13	1.4	1.45	0.787	–	–	0.455
CN1c2ccccc2C(C)(C)C12CC(c1ccc(Cl)c(S(=O)(=O)N3CCCC3)c1)=NO2 (stereo unspecified)	–	> 100	> 100	> 100 µM	> 100	> 100	> 100	–	> 100	> 100	> 100	> 100	> 100	> 100	> 100	0.456	> 100	> 100	> 100	> 100
COc1cccc2c1C(=O)c1c(O)c3c(c(O)c1C2=O)C[C@@](O)(/C(C)=N\O)C[C@@H]3OC1CC(N)C(O)C(C)O1 (stereo partly specified)	22.6	10.8	2.14	8.58 µM	2.29	3.8	17.2	–	–	–	–	–	–	49.2	–	–	–	–	–	–

SMILES	TGI [1] [µM]	TGI [2] [µM]	TGI [3] [µM]	TGI [4]	TGI [5] [µM]	TGI [6] [µM]	TGI [7] [µM]	GI50 [1] [µM]	GI50 [2] [µM]	GI50 [3] [µM]	GI50 [8] [µM]	TGI [8] [µM]	GI50 [9] [µM]	TGI [9] [µM]	GI50 [4] [µM]	GI50 [5] [µM]	GI50 [6] [µM]	TGI [10] [µM]	GI50 [10] [µM]	GI50 [7] [µM]
COc1cccc(C2C(C#N)=C(N)Oc3cc(OC)ccc32)c1 (stereo unspecified)	> 100	> 100	0.077	1.18 µM	1.69	0.0596	> 50.9	0.0493	0.138	0.0263	–	–	0.0572	31.1	0.0244	0.0455	0.0231	–	0.0184	0.0622
CC1=N/C(=C\c2cccc3ccccc23)C(=O)O1	–	> 100	> 100	–	> 100	> 100	> 100	–	–	–	–	–	–	> 100	–	–	–	–	–	–
O=C1CCC(=O)C12CCc1cccc(O)c12	> 100	> 100	> 100	> 100 µM	–	–	> 100	–	–	–	–	–	–	> 100	–	–	–	–	–	–
C=CCC(C)(C(=O)NCCC)C(=O)c1ccccc1O (stereo unspecified)	> 100	> 100	> 100	> 100 µM	> 100	> 100	> 100	–	–	–	–	–	–	> 100	–	–	–	–	–	–
COc1ccc(-c2nn(-c3cccc(NC(=O)Nc4cccc(C(F)(F)F)c4)c3)cc2-c2ccncc2)cc1Cl	> 100	> 100	6.26	–	3.22	6.45	> 100	1.77	1.88	1.95	1.45	4.67	1.48	> 100	–	1.57	1.97	> 100	2.29	3.73
C=C1CO[C@@H]2C[C@@H]1CCC1(C)OC1CC/C(C)=C/CC[C@@]2(C)O (stereo partly specified)	44	31.4	–	33 µM	29.4	31.3	32	20	16.7	–	18.5	42.2	15.1	29.5	16.9	15.4	16.1	> 67.4	32.3	16.3
O=C(/C=C/c1ccc(Cl)cc1)c1ccncc1	> 100	> 100	67.3	> 100 µM	> 100	> 100	> 100	–	–	–	–	–	–	> 100	–	–	–	–	–	–
Cc1ccc([Se][Se]c2ccc(C)cc2)cc1	> 100	> 100	19.2	> 100 µM	39.6	> 100	> 100	–	–	–	–	–	–	49.7	–	–	–	–	–	–
CN(Cc1ccccc1)C1(N(C)Cc2ccccc2)CC1	> 100	> 100	> 100	> 100 µM	> 100	> 100	> 100	–	–	–	–	–	–	> 100	–	–	–	–	–	–
O=C1NC(=S)NC(=O)C1=Cc1ccc2ccccc2n1	> 100	> 100	> 100	> 100 µM	> 100	> 100	> 100	–	–	–	–	–	–	> 100	–	–	–	–	–	–
CN(C)CCNC(=O)c1cccc2c1nc(-c1ccccn1)c1ccccc12	61.9	35.3	34.8	38.6 µM	28.7	30.4	66.6	–	–	–	–	–	–	22.7	–	–	–	–	–	–
C=C(C(=O)OC)[C@@H]1C[C@@H](O)[C@]2(C)CC/C=C(\C)CCC[C@H](C)[C@H](O)C1O2	> 100	> 100	–	92.7 µM	79.5	> 100	73.5	45.5	57.5	–	37.8	> 100	52.8	> 100	31.3	26.3	> 100	> 100	83.7	22.7
COc1ccc(/C=C/C(C(=O)O)C(=O)O)cc1	> 100	> 100	74.7	> 100 µM	> 100	> 100	> 100	–	–	–	–	–	–	> 100	–	–	–	–	–	–
Cc1nn(C)c(=S)n(C)c1=O	–	10.2	6.47	> 100 µM	–	21.9	53.2	–	–	–	–	–	–	0.753	–	–	–	–	–	–
N#Cc1ccc2oc3ccc(C#N)cc3c(=O)c2c1	> 100	> 100	38.5	–	17.6	43.6	> 100	–	–	–	–	> 100	–	> 100	–	–	–	> 100	–	–
CC1=C(c2cc(C(=O)Nc3cccc(C(F)(F)F)c3)nc(NC#N)n2)Sc2ccccc2N1	> 100	> 100	> 100	> 100 µM	> 100	> 100	> 100	–	–	–	–	–	–	> 100	–	–	–	–	–	–
COc1ccc(S(=O)(=O)N/N=C(\C)CN2C(=O)c3ccccc3C2=O)cc1	> 100	> 100	> 100	> 100 µM	> 100	> 100	> 100	–	–	–	–	–	–	> 100	–	–	–	–	–	–
C1C[OH+]CC[OH+]CC[OH+]CC[OH+]CC[OH+]CC[OH+]1.[Cl-].[Ta+5]	> 100	> 100	> 100	> 100 µM	> 100	> 100	> 100	> 100	> 100	> 100	–	–	5.02	30.3	> 100	> 100	> 100	–	–	> 100
Cc1nn(C)c(=O)c2nn(-c3ccccc3)c(C)c12	> 100	> 100	> 100	> 100 µM	> 100	> 100	> 100	–	–	–	–	–	–	> 100	–	–	–	–	–	–
Cc1cccc(N2C(=O)C(=O)C(c3nc4ccccc4s3)C(=O)C2=O)c1C	> 100	> 100	–	> 100 µM	> 100	> 100	> 100	–	–	–	–	–	–	> 100	–	–	–	–	–	–
